Laboratory results as given in patent publication US20200247800A1, “SUBSTITUTED BICYCLIC HETEROCYCLIC COMPOUNDS AS NADPH OXIDASE INHIBITORS” (Glenmark Pharmaceuticals S.A., priority 2017, published 2020).

Target: T1, human NOX4 (Homo sapiens, UniProt Q9NPH5)
T1 construct: expressed in transfected cells; membrane fraction used
T1 sequence (Q9NPH5 1-578): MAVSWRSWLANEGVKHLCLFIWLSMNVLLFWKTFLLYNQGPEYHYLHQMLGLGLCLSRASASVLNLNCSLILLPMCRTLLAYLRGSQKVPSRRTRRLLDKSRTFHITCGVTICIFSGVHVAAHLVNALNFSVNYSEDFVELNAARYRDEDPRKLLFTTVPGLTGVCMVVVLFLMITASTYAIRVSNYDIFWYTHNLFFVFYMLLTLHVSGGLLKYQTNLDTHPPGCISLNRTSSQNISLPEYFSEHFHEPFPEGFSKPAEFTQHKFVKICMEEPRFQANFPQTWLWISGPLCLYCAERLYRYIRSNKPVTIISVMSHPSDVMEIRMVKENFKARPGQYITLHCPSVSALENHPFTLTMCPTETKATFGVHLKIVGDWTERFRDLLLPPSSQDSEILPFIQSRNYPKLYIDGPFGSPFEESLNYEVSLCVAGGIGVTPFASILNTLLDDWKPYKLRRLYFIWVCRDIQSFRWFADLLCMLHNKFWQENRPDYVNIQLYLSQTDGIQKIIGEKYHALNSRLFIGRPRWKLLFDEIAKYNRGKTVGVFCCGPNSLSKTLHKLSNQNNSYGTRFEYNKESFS
T1 sequence (P13498 1-195 partner): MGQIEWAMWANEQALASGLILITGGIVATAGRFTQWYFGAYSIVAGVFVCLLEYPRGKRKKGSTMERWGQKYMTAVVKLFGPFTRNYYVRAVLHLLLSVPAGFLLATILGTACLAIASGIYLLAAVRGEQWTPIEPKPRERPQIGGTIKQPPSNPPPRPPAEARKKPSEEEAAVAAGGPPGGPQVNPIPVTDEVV
Test: Cell free membrane based in vitro NOX4 assay: H2O2 production by membranes expressing human NOX4, measured with Amplex Red
Type: biochemical
Settings: for inhibition at 1 µM: 1.0 μM compound, read-out: Percentage inhibition at 1.0 μM; for inhibition at 10 µM: 10.0 μM compound, read-out: Percentage inhibition at 10.0 μM; for IC50: class symbols
In short: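 IC50 came from concentration-response curves fitted as % of the inhibitor-free maximum. H2O2 formation was monitored for 10 min via Amplex Red/HRP fluorescence (544/590 nm) after NADPH start. Membranes from a stable hNOX4/HEK line had 20 min exposure to inhibitor beforehand at pH 7.4.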

Row | inhibition at 1 µM [%] | inhibition at 10 µM [%] | IC50 [nM] | Compound
1 | 96.5 | 100 | 100 to 150 | Cn1nc(CO)c2c(=O)c(O)c(-c3c(F)cccc3F)[nH]c21 [Example 188, 6-(2,6-Difluorophenyl)-5-hydroxy-3-(hydroxymethyl)-1-methyl-1H-pyrazolo[3,4-b]pyridin-4(7H)-one]
2 | 50.1 | – | – | Cc1ccc(-c2[nH]c3c(c(C)nn3C)c(=O)c2O)cc1C [Example 15, 6-(3,4-Dimethylphenyl)-5-hydroxy-1,3-dimethyl-1,7-dihydro-4H-pyrazolo[3,4-b]pyridin-4-one]
3 | 72.8 | – | > 150 | CCc1nn(C)c2[nH]c(-c3cc(F)ccc3F)c(O)c(=O)c12 [Example 163, 6-(2,5-Difluorophenyl)-3-ethyl-5-hydroxy-1-methyl-1H-pyrazolo[3,4-b]pyridine-4(7H)-one]
4 | 99.7 | – | > 150 | Cc1nn(C)c2[nH]c(-c3ccc(OC(F)(F)F)c(F)c3)c(O)c(=O)c12 [Example 16, 6-[3-Fluoro-4-(trifluoromethoxy)phenyl]-5-hydroxy-1,3-dimethyl-1,7-dihydro-4H-pyrazolo[3,4-b]pyridin-4-one]
5 | 72.9 | – | > 150 | CCn1nc(C)c2c(=O)c(O)c(-c3ccc(NS(C)(=O)=O)cc3F)[nH]c21 [Example 235, N-[4-(1-ethyl-5-hydroxy-3-methyl-4-oxo-4,7-dihydro-1H-pyrazolo[3,4-b]pyridin-6-yl)-3-fluorophenyl]methanesulfonamide]
6 | 97.7 | 100 | 100 to 150 | Cn1nc(CN2CC[C@H](F)C2)c2c(=O)c(O)c(-c3c(F)cccc3F)[nH]c21 [Example 195, (S)-6-(2,6-Difluorophenyl)-3-((3-fluoropyrrolidin-1-yl)methyl)-5-hydroxy-1-methyl-1H-pyrazolo[3,4-b]pyridin-4(7H)-one]
7 | 84 | 97.1 | > 150 | Cn1nc(CN2CCN(CCF)CC2)c2c(=O)c(O)c(-c3c(F)cccc3F)[nH]c21 [Example 221, 6-(2,6-Difluorophenyl)-3-((4-(2-fluoroethyl)piperazin-1-yl)methyl)-5-hydroxy-1-methyl-1H-pyrazolo[3,4-b]pyridin-4(7H)-one]
8 | 41.1 | 38.8 | – | Cc1c2c(=O)c(O)c(-c3ccccc3Cl)[nH]c2nn1C [Example 59, 6-(2-Chlorophenyl)-5-hydroxy-2,3-dimethyl-2,7-dihydro-4H-pyrazolo[3,4-b]pyridin-4-one]
9 | 77.9 | 95.1 | > 150 | Cc1nn(-c2ccc(F)cc2Cl)c2[nH]c(-c3ccccc3Cl)c(O)c(=O)c12 [Example 141, 1-(2-Chloro-4-fluorophenyl)-6-(2-chlorophenyl)-5-hydroxy-3-methyl-1H-pyrazolo[3,4-b]pyridin-4(7H)-one]
10 | 92.1 | 94.5 | 100 to 150 | Cn1nc(C(F)(F)F)c2c(=O)c(O)c(-c3ccc(-n4ccnc4)cc3)[nH]c21 [Example 54, 5-Hydroxy-6-[4-(1H-imidazol-1-yl)phenyl]-1-methyl-3-(trifluoromethyl)-1,7-dihydro-4H-pyrazolo[3,4-b]pyridin-4-one]
11 | 75.8 | 94.9 | > 150 | Cn1nc(C(F)(F)F)c2c(=O)c(O)c(-c3ccc(Cl)cc3F)[nH]c21 [Example 52, 6-(4-Chloro-2-fluorophenyl)-5-hydroxy-1-methyl-3-(trifluoromethyl)-1,7-dihydro-4H-pyrazolo[3,4-b]pyridin-4-one]
12 | 89.5 | 86.3 | 50 to 100 | Cc1nn(C2CCC(F)(F)CC2)c2[nH]c(-c3c(F)cccc3F)c(O)c(=O)c12 [Example 137, 1-(4,4-Difluorocyclohexyl)-6-(2,6-difluorophenyl)-5-hydroxy-3-methyl-1H-pyrazolo[3,4-b]pyridin-4(7H)-one]
13 | 92.3 | – | 100 to 150 | CCc1nn(CCN2CCN(C)CC2)c2[nH]c(-c3cccc(C(F)(F)F)c3F)c(O)c(=O)c12 [Example 179, 3-Ethyl-6-(2-fluoro-3-(trifluoromethyl)phenyl)-5-hydroxy-1-(2-(4-methylpiperazin-1-yl)ethyl)-1H-pyrazolo[3,4-b]pyridin-4(7H)-one]
14 | 69.6 | 98.5 | > 150 | O=c1c(O)c(-c2ccccc2Cl)[nH]c2c1c(C(F)(F)F)nn2C1CCOCC1 [Example 130, 6-(2-Chlorophenyl)-5-hydroxy-1-(tetrahydro-2H-pyran-4-yl)-3-(trifluoromethyl)-1H-pyrazolo[3,4-b]pyridin-4(7H)-one]
15 | 84.2 | 97.1 | 100 to 150 | O=c1c(O)c(-c2c(F)cccc2F)[nH]c2c1c(CO)nn2C1CC1 [Example 183, 1-Cyclopropyl-6-(2,6-difluorophenyl)-5-hydroxy-3-(hydroxymethyl)-1H-pyrazolo[3,4-b]pyridin-4(7H)-one]
16 | 81.5 | 71.7 | > 150 | CCc1nn(CCC2CCOCC2)c2[nH]c(-c3ccccc3Cl)c(O)c(=O)c12 [Example 212, 6-(2-Chlorophenyl)-3-ethyl-5-hydroxy-1-(2-(tetrahydro-2H-pyran-4-yl)ethyl)-1H-pyrazolo[3,4-b]pyridin-4(7H)-one]
17 | 81.5 | 79.3 | < 50 | CCc1nn(C)c2[nH]c(-c3c(F)cccc3F)c(O)c(=O)c12 [Example 71, 6-(2,6-Difluorophenyl)-3-ethyl-5-hydroxy-1-methyl-1H-pyrazolo[3,4-b]pyridin-4(7H)-one]
18 | 85 | 87.5 | < 50 | Cc1nn(C2CCCCC2)c2[nH]c(-c3c(F)cccc3F)c(O)c(=O)c12 [Example 136, 1-Cyclohexyl-6-(2,6-difluorophenyl)-5-hydroxy-3-methyl-1,7-dihydro-4H-pyrazolo[3,4-b]pyridin-4-one]
19 | 100 | 100 | 50 to 100 | Cc1nn(-c2ccc(F)c(F)c2)c2[nH]c(-c3c(F)cccc3F)c(O)c(=O)c12 [Example 37, 6-(2,6-Difluorophenyl)-1-(3,4-difluorophenyl)-5-hydroxy-3-methyl-1,7-dihydro-4H-pyrazolo[3,4-b]pyridin-4-one]
20 | 58.4 | 66.8 | – | Cc1nn(C2CC2)c2[nH]c(-c3ccccc3Cl)c(O)c(=O)c12 [Example 125, 6-(2-Chlorophenyl)-1-cyclopropyl-5-hydroxy-3-methyl-1,7-dihydro-4H-pyrazolo[3,4-b]pyridin-4-one]
21 | 86.8 | 96.5 | 100 to 150 | Cn1nc(C(F)(F)F)c2c(=O)c(O)c(-c3ccc(F)cc3)[nH]c21 [Example 42, 6-(4-Fluorophenyl)-5-hydroxy-1-methyl-3-(trifluoromethyl)-1,7-dihydro-4H-pyrazolo[3,4-b]pyridin-4-one]
22 | 99.2 | 98.6 | < 50 | Cn1nc(C2CCOCC2)c2c(=O)c(O)c(-c3c(F)cccc3F)[nH]c21 [Example 189, 6-(2,6-Difluorophenyl)-5-hydroxy-1-methyl-3-(tetrahydro-2H-pyran-4-yl)-1H-pyrazolo[3,4-b]pyridin-4(7H)-one]
23 | 98.2 | 100 | 100 to 150 | Cc1nn(CC(F)(F)F)c2[nH]c(-c3ccccc3Cl)c(O)c(=O)c12 [Example 27, 6-(2-Chlorophenyl)-5-hydroxy-3-methyl-1-(2,2,2-trifluoroethyl)-1,7-dihydro-4H-pyrazolo[3,4-b]pyridin-4-one]
24 | 100 | 100 | 50 to 100 | CCc1nn(CCC(C)C)c2[nH]c(-c3ccccc3Cl)c(O)c(=O)c12 [Example 181, 6-(2-Chlorophenyl)-3-ethyl-5-hydroxy-1-isopentyl-1H-pyrazolo[3,4-b]pyridin-4(7H)-one]
25 | 93.1 | 100 | < 50 | O=c1c(O)c(-c2c(F)cccc2F)[nH]c2c1c(C1CCOCC1)nn2C1CC1 [Example 190, 1-Cyclopropyl-6-(2,6-difluorophenyl)-5-hydroxy-3-(tetrahydro-2H-pyran-4-yl)-1H-pyrazolo[3,4-b]pyridin-4(7H)-one]
26 | 85.1 | 74.4 | 50 to 100 | CCn1nc(C)c2c(=O)c(O)c(-c3cc(CNC(=O)C(C)(C)C)ccc3Cl)[nH]c21 [Example 129, N-(4-Chloro-3-(1-ethyl-5-hydroxy-3-methyl-4-oxo-4,7-dihydro-1H-pyrazolo[3,4-b]pyridin-6-yl)benzyl)pivalamide]
